From patent US20220395467A1, “THERAPEUTIC PROTEIN-BASED NANOPARTICLES AND METHODS FOR MAKING THE SAME” (THE REGENTS OF THE UNIVERSITY OF MICHIGAN, priority 2019, published 2022)

System: B16F10-OVA melanoma
Assay: Therapeutic efficacy in murine model of B16F10-OVA melanoma
Type: in vivo, C57BL/6 mice
Description: FIGS. 9A-9B. FIGS. 9A-9B show therapeutic effect of OVA pNPs. In FIG. 9A, a vaccine doses and regimen for a murine model is shown. […] C57BL/6 mice are inoculated subcutaneously with 1×10^5 B 16F10-OVA cells on day 0. On days 7 and 14, mice are treated with indicated formulations (OVA pNP, soluble OVA, PBS) containing 10 μg/dose OVA and 15 μg/dose CpG (100 μL dose). Data represent mean±SEM (n=10). Groups are compared using Kaplan-Meier estimator analysis. P<0.05 is considered statistically different (*P<0.05). P>0.05 is considered not significant.
Therapeutic efficacy of pNPs in a model of melanoma. Encouraged by the fact that OVA pNPs with 10% PEG/OVA ratio result in increased OT-I CD8+ cell proliferation in vitro, improved uptake by APCs (both in vitro and in vivo), and enhanced humoral immune response in vivo, a murine model of B16F10-OVA melanoma was employed to evaluate the therapeutic efficacy of pNPs with a PEG/OVA ratio of 10% compared to solute OVA. […] Following the regimen shown in FIG. 9A, C57BL/6 mice (10 mice/treatment group) were inoculated with 1×10^5 B16F10-OVA cells in the SC flank on day 0. […] A second treatment was given on day 14. Mice were euthanized after their tumors reached 15 mm in any dimension. […] More than 50% of mice treated with solute OVA were euthanized due to large tumor burden on day 20, and 100% of the mice were euthanized on day 21.

[1] = treated days 7 and 14, 10 μg OVA + 15 μg CpG, n=10

## Ovalbumin [soluble OVA, soluble ovalbumin antigen used as control]
Solute OVA vs no treatment control, pNPs until endpoint day 24
  animal survival: slightly better survival
[1]
  mice euthanized due to large tumor burden on day 20: More than 50%
  mice euthanized on day 21: 100%
